{
  "source": "patent US20050282910A1",
  "about": "“Methods of application of chemical compounds having therapeutic activities in treating cancers” (priority 2003, published 2005)",
  "key": {"MCF7/adr": {"tested_on": "MCF7/adr", "assay": "Reversal of drug resistance by ethanol extracts of Schisandra chinensis fruit, MTT cytotoxicity of anticancer agents"}, "[1]": {"tested_on": "human epidermoid carcinoma MDR cell line KBv200", "assay": "cells", "conditions": "KBv200, 72 h"}, "[2]": {"tested_on": "human breast cancer MDR cell line MCF7/adr"}, "K562/adr": {"tested_on": "K562/adr", "assay": "Reversal of drug resistance by ethanol extracts of Schisandra chinensis fruit, MTT cytotoxicity of anticancer agents", "assay_type": "cell-based, human", "experimental": "Assays were carried out in triplicate against human MDR cancer cell lines K562/adr, KBv200, and MCF7/adr. […] Alternatively, flow cytometry assays using FACS Calibur equipped with software Cellquest 3.1f (Becton-Dickinson, Holbrook, N.J.) were applied to count the cell numbers in each sample."}, "HL60/adr": {"tested_on": "HL60/adr", "assay": "Reversal of MRP1-mediated drug resistance, MTT cytotoxicity of anticancer agents", "assay_type": "cell-based, human", "conditions": "for IC50: Homo sapiens, HL60/ADR, 72 h", "experimental": "Assays were carried out in triplicate against MDR cancer cell HL60/adr. MTT assays as described previously (X."}, "[3]": {"tested_on": "human leukemia MDR cell line K562/adr", "assay": "Reversal of P-glycoprotein-mediated drug resistance by Schisandrin A, Schisandrol A, Schisantherin A, MTT cytotoxicity of anticancer agents", "assay_type": "cell-based", "conditions": "for IC50: Homo sapiens, K562/Adr, 72 h", "experimental": "Assays were carried out in triplicate against human leukemia MDR cell line K562/adr, human breast cancer MDR cell line MCF7/adr, and human epidermoid carcinoma MDR cell line KBv200."}, "[4]": {"tested_on": "human epidermoid carcinoma MDR cell line KBv200"}, "SMMC7721": {"tested_on": "SMMC7721", "assay": "Enhancement of anticancer agent-induced apoptosis and necrosis, Anexin V-FITC/PI", "assay_type": "cell-based, human", "conditions": "SMMC7721; vincristine 0.5 μg/ml, Schisandrin B 20 μg/ml; 48 hours", "experimental": "To illustrate the activities of Schisandrin B or its analogs enhancing the apoptosis of cancer cells induced by an anticancer agent according to the present disclosure, human cancer cell line SMMC7721, a non-drug-resistant hepatic cancer cell line, and MCF7, a non-drug-resistant breast cancer cell line, were selected for use. Assays were carried out in triplicates against SMMC7721 or MCF7. […] Cells were collected and the apoptotic cells and necrotic cell percentages were determined using Anexin V-FITC/PI kit (Sigma, St. Louis, Mo., USA) according to manufacturer's instructions. Alternatively, the apoptotic and necrotic cell percentages were measured using DNA Plus kit (Becton-Dickinson, USA) according to the manufacturer's instructions."}, "[5]": {"tested_on": "human breast cancer MDR cell line MCF7/adr", "assay": "cells", "conditions": "NCI/ADR-RES, 72 h"}, "KBv200": {"tested_on": "KBv200", "assay": "Reversal of drug resistance by ethanol extracts of Schisandra chinensis fruit, MTT cytotoxicity of anticancer agents"}, "P-glycoprotein": {"target": "P-glycoprotein (Homo sapiens, UniProt P08183)", "sequence (P08183 whole entry)": "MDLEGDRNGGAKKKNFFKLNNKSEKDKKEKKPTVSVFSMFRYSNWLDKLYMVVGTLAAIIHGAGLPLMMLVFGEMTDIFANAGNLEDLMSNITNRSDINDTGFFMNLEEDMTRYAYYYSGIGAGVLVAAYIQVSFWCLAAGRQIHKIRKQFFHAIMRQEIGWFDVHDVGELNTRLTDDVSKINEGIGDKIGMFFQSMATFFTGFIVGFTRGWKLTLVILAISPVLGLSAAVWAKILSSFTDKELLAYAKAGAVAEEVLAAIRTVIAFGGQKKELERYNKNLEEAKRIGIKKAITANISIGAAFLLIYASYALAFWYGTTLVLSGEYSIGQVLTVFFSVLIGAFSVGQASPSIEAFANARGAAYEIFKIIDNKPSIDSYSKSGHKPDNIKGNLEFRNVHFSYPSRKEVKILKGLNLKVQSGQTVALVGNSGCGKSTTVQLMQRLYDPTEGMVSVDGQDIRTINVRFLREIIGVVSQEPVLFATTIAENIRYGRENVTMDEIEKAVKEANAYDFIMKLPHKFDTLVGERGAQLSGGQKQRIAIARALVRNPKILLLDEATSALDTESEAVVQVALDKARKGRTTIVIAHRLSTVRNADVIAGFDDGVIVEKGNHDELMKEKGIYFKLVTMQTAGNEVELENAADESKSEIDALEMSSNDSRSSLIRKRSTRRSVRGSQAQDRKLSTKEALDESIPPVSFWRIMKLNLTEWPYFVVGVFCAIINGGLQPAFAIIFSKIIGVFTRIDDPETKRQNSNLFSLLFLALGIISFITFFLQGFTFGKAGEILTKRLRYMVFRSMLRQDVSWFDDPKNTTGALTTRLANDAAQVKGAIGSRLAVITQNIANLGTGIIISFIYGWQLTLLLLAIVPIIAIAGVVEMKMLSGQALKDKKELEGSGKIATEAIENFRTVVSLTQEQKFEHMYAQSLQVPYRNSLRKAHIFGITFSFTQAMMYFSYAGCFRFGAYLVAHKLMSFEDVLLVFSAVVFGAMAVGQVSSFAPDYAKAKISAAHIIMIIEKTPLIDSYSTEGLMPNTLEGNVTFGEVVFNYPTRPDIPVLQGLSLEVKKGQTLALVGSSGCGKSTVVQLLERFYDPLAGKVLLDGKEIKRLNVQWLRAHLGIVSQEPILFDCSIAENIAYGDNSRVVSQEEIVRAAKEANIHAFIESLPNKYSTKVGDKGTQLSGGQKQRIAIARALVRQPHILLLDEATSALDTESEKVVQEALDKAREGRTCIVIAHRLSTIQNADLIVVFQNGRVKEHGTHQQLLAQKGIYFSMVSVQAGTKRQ", "assay": "Daunorubicin accumulation in MCF7/adr cells (P-glycoprotein-mediated drug efflux), flow cytometry", "assay_type": "cell-based", "conditions": "2 μg/ml daunorubicin; 0, 1, 10, 20, 40, and 80 μg/ml compound; 60 minutes; FIG. 5", "experimental": "P-glycoprotein functions as a drug pump that unilaterally pumps the anticancer agents out of MDR cancer cells. Inhibition of P-glycoprotein results in an increase of the intracellular drug concentration within cancer cells. […] Cells were collected at 60 minutes after incubation."}, "MRP1": {"target": "T1, MRP1 (Homo sapiens, UniProt P33527)", "T1 construct": "human cancer cell line HL60/adr, an MDR cell line characterized by MRP1 overexpression; endogenous in cells; host or cells: HL60/adr (human MDR cancer cell line)", "T1 sequence (P33527 whole entry)": "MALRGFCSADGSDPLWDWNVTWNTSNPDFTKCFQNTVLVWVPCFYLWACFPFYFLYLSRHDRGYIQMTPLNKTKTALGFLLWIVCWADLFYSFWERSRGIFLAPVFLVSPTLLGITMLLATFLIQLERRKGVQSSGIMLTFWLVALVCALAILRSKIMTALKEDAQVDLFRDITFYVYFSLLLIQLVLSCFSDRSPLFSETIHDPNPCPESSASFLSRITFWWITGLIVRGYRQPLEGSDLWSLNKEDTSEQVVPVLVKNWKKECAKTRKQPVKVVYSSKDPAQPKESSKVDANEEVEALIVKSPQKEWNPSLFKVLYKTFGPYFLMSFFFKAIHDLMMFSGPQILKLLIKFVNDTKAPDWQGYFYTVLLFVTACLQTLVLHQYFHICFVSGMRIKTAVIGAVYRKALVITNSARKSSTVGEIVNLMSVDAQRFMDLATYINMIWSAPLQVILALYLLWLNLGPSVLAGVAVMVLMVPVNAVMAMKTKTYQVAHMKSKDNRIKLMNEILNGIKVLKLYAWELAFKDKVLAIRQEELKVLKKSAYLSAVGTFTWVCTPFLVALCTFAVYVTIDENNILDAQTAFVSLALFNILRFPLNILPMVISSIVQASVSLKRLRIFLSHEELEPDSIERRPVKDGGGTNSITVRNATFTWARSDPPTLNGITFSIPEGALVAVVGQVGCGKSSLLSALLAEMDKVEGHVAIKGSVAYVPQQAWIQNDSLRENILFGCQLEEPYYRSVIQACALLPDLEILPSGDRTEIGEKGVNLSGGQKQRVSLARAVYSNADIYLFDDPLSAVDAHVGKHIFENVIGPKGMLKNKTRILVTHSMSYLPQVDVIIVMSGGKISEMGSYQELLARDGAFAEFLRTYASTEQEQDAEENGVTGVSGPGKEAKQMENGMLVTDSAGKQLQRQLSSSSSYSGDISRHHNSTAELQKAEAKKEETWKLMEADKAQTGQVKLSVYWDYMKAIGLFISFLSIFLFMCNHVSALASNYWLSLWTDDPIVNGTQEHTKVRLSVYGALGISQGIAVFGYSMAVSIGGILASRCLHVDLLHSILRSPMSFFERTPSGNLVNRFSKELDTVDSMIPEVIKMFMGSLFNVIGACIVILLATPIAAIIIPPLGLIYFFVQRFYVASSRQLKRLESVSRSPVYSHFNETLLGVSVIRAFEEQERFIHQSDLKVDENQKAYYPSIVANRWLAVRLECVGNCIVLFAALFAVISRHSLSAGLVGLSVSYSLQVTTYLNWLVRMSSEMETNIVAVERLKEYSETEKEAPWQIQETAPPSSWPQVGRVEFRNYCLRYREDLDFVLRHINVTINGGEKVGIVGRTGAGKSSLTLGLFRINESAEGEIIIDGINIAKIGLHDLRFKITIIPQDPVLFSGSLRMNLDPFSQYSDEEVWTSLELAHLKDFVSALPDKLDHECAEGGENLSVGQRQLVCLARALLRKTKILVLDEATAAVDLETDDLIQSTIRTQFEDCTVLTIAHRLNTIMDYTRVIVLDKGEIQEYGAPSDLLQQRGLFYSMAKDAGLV", "assay": "Daunorubicin accumulation in HL60/adr cells (MRP1-mediated drug efflux), flow cytometry", "assay_type": "cell-based", "conditions": "2 μg/ml daunorubicin; 60 minutes; FIG. 7", "from_the_text": "MRP1 functions as a drug pump that unilaterally pumps the anticancer agents out of MDR cancer cells. Inhibition of MRP1 results in an increase of intracellular drug concentration within cancer cells."}, "[6]": {"conditions": "read-out: IC50 (ng/ml) −Schisandrin A"}, "[7]": {"conditions": "read-out: IC50 (ng/ml) −Schisantherin A"}, "[8]": {"conditions": "anticancer agent in the presence of Schisandrin A (10 μg/ml), 72 hours"}, "[9]": {"conditions": "anticancer agent in the presence of Schisantherin A (10 μg/ml), 72 hours"}},
  "note": "Like-named read-outs stand apart in the source and are kept apart here.",
  "data": [
    {"smiles": "CC[C@]1(O)C[C@H]2CN(CCc3c([nH]c4ccccc34)[C@@](C(=O)OC)(c3cc4c(cc3OC)N(C=O)[C@H]3[C@@](O)(C(=O)OC)[C@H](OC(C)=O)[C@]5(CC)C=CCN6CC[C@]43[C@@H]65)C2)C1", "note": "[Vincristine]", "values": [
      {"measurement": "IC50", "setting": "MCF7/adr; Homo sapiens, NCI/ADR-RES, 72 h, read-out: IC50 (ng/ml) −ethanol extract", "value": "490 ± 112", "unit": "ng/mL"},
      {"measurement": "IC50 (ng/ml) +ethanol extract", "setting": "MCF7/adr; MCF7/adr, anticancer agent in the presence of ethanol extracts (50 μg/ml), 72 hours", "value": "210 ± 32", "unit": "ng/mL"},
      {"measurement": "RF (reversal folds of drug resistance)", "setting": "MCF7/adr; MCF7/adr, by ethanol extracts (50 μg/ml)", "value": 2.3},
      {"measurement": "IC50", "setting": "[1]; [6]", "value": "22.5 ± 3.2", "unit": "ng/mL"},
      {"measurement": "IC50", "setting": "[1]; [7]", "value": "22.5 ± 5.6", "unit": "ng/mL"},
      {"measurement": "IC50 (ng/ml) +Schisandrin A", "setting": "[2]; [8]", "value": "8.4 ± 2.3", "unit": "ng/mL"},
      {"measurement": "IC50 (ng/ml) +Schisantherin A", "setting": "[2]; [9]", "value": "24.1 ± 9.2", "unit": "ng/mL"},
      {"measurement": "RF (reversal folds of drug resistance)", "setting": "[2]; by Schisandrin A (10 μg/ml)", "value": 59.6},
      {"measurement": "RF (reversal folds of drug resistance)", "setting": "[2]; by Schisantherin A (10 μg/ml)", "value": 20.9},
      {"measurement": "IC50", "setting": "K562/adr; Homo sapiens, anticancer agent in the absence of ethanol extracts, 72 hours, read-out: IC50 (ng/ml) −ethanol extract", "value": "870 ± 230", "unit": "ng/mL"},
      {"measurement": "IC50 (ng/ml) +ethanol extract", "setting": "K562/adr; anticancer agent in the presence of ethanol extracts (50 μg/ml), 72 hours", "value": "110 ± 42", "unit": "ng/mL"},
      {"measurement": "RF (reversal folds of drug resistance)", "setting": "K562/adr; by ethanol extracts (50 μg/ml)", "value": 7.9},
      {"measurement": "IC50 (ng/ml) +Schisandrin A", "setting": "HL60/adr; HL60/adr, anticancer agent in the presence of Schisandrin A (10 μg/ml), 72 hours", "value": "3.3 ± 0.9", "unit": "ng/mL"},
      {"measurement": "IC50 (ng/ml) +Schisandrin B", "setting": "HL60/adr; HL60/adr, anticancer agent in the presence of Schisandrin B (10 μg/ml), 72 hours", "value": "<1", "unit": "ng/mL"},
      {"measurement": "IC50 (ng/ml) +Schisantherin A", "setting": "HL60/adr; HL60/adr, anticancer agent in the presence of Schisantherin A (10 μg/ml), 72 hours", "value": "3.9 ± 0.9", "unit": "ng/mL"},
      {"measurement": "RF (reversal folds of drug resistance)", "setting": "HL60/adr; HL60/adr, by Schisandrin A (10 μg/ml)", "value": 27.0},
      {"measurement": "RF (reversal folds of drug resistance)", "setting": "HL60/adr; HL60/adr, by Schisandrin B (10 μg/ml)", "value": ">48"},
      {"measurement": "RF (reversal folds of drug resistance)", "setting": "HL60/adr; HL60/adr, by Schisantherin A (10 μg/ml)", "value": 22.8},
      {"measurement": "IC50 (ng/ml) +Schisandrin B", "setting": "HL60/adr; HL60/adr, vincristine in the presence of Schisandrin B 5 μg/ml, 72 hours", "value": "5 ± 1", "unit": "ng/mL"},
      {"measurement": "IC50 (ng/ml) +Schisandrin B", "setting": "HL60/adr; HL60/adr, vincristine in the presence of Schisandrin B 10 μg/ml, 72 hours", "value": "4 ± 2", "unit": "ng/mL"},
      {"measurement": "IC50 (ng/ml) +Schisandrin B", "setting": "HL60/adr; HL60/adr, vincristine in the presence of Schisandrin B 20 μg/ml, 72 hours", "value": "<1", "unit": "ng/mL"},
      {"measurement": "IC50", "setting": "HL60/adr; HL60/adr, anticancer agent in the absence of Schisandrin A, 72 hours, read-out: IC50 (ng/ml) −Schisandrin A", "value": "89 ± 21", "unit": "ng/mL"},
      {"measurement": "IC50", "setting": "HL60/adr; HL60/adr, anticancer agent in the absence of Schisandrin B, 72 hours, read-out: IC50 (ng/ml) −Schisandrin B", "value": "48 ± 12", "unit": "ng/mL"},
      {"measurement": "IC50", "setting": "HL60/adr; HL60/adr, anticancer agent in the absence of Schisantherin A, 72 hours, read-out: IC50 (ng/ml) −Schisantherin A", "value": "89.1 ± 21", "unit": "ng/mL"},
      {"measurement": "IC50", "setting": "HL60/adr; HL60/adr, vincristine in the absence of Schisandrin B, 72 hours, read-out: IC50 (ng/ml) −Schisandrin B", "value": "42 ± 1", "unit": "ng/mL"},
      {"measurement": "IC50", "setting": "[3]; K562/adr, anticancer agent in the absence of Schisandrin A, 72 hours, read-out: IC50 (ng/ml) −Schisandrin A", "value": "612 ± 176", "unit": "ng/mL"},
      {"measurement": "IC50", "setting": "[3]; K562/adr, anticancer agent in the absence of Schisantherin A, 72 hours, read-out: IC50 (ng/ml) −Schisantherin A", "value": "612 ± 158", "unit": "ng/mL"},
      {"measurement": "IC50 (ng/ml) +Schisandrin A", "setting": "[3]; K562/adr, anticancer agent in the presence of Schisandrin A (10 μg/ml), 72 hours", "value": "7.3 ± 2.1", "unit": "ng/mL"},
      {"measurement": "IC50 (ng/ml) +Schisantherin A", "setting": "[3]; K562/adr, anticancer agent in the presence of Schisantherin A (10 μg/ml), 72 hours", "value": "7.7 ± 2.1", "unit": "ng/mL"},
      {"measurement": "RF (reversal folds of drug resistance)", "setting": "[3]; K562/adr, by Schisandrin A (10 μg/ml)", "value": 83.8},
      {"measurement": "RF (reversal folds of drug resistance)", "setting": "[3]; K562/adr, by Schisantherin A (10 μg/ml)", "value": 79.5},
      {"measurement": "IC50 (ng/ml) +Schisandrin A", "setting": "[4]; [8]", "value": "2.95 ± 0.7", "unit": "ng/mL"},
      {"measurement": "IC50 (ng/ml) +Schisantherin A", "setting": "[4]; [9]", "value": "3.7 ± 0.9", "unit": "ng/mL"},
      {"measurement": "RF (reversal folds of drug resistance)", "setting": "[4]; by Schisandrin A (10 μg/ml)", "value": 7.6},
      {"measurement": "RF (reversal folds of drug resistance)", "setting": "[4]; by Schisantherin A (10 μg/ml)", "value": 6.1},
      {"measurement": "Apoptotic + necrotic (%)", "setting": "SMMC7721", "value": "6.1 ± 0.4", "unit": "%"},
      {"measurement": "IC50", "setting": "[5]; [6]", "value": "501 ± 129", "unit": "ng/mL"},
      {"measurement": "IC50", "setting": "[5]; [7]", "value": "501 ± 109", "unit": "ng/mL"},
      {"measurement": "IC50", "setting": "KBv200; Homo sapiens, KBv200, 72 h, read-out: IC50 (ng/ml) −ethanol extract", "value": "42 ± 14", "unit": "ng/mL"},
      {"measurement": "RF (reversal folds of drug resistance)", "setting": "KBv200; KBv200, by ethanol extracts (50 μg/ml)", "value": 13.5}
    ]},
    {"smiles": "COc1cc2c(c(OC)c1OC)-c1c(cc3c(c1OC)OCO3)C[C@H](C)[C@](C)(O)[C@H]2OC(=O)c1ccccc1", "note": "[Schisantherin A]", "values": [
      {"measurement": "accumulation of daunorubicin within MCF7/adr cells (in words)", "setting": "P-glycoprotein", "value": "proportionately correlated with the increment of the concentration"},
      {"measurement": "drug sensitivity of HL60/adr toward the anticancer agents (in words)", "setting": "HL60/adr; compound 10 μg/ml", "value": "enhanced"},
      {"measurement": "daunorubicin accumulation within HL60/adr cells (in words)", "setting": "MRP1", "value": "increased with the increasing concentration"},
      {"measurement": "sensitivity of MDR cancer cell K562/adr to daunorubicin (in words)", "setting": "[3]; FIG. 3", "value": "increase the sensitivity"}
    ]}
  ]
}
